Experimental data from PubChem BioAssay AID1963423 (Molecular Pharmacology Branch, DTP, NCI, 2024).

Test system: 439559-082-T-J2-PDC complex spheroid growth
Test: Anticancer human tumor 439559-082-T-J2-PDC patient-derived colon adenocarcinoma cell line growth inhibition [Asc]
Conditions: for IC50: curve of first compound; for viability, T/C: stronger effect = lower value
Procedure: Multicellular complex tumor spheroid response to apoptosis pathway targeting inhibitors Alrizomadlin, Pelcitoclax, and Dasminapant in combination with a variety of drugs and investigational agents in selected tumor cell lines
The MDM2 inhibitor alrizomadlin, the Bcl-2/Bcl-xL inhibitor pelcitoclax, and the IAPs inhibitor dasminapant were evaluated both individually and in combination with standard of care and investigational anticancer small molecules within a complex spheroid model of solid tumors. . Complex spheroids include a stromal component modeled by human endothelial cells (HUVEC) and fibroblasts modeled by human mesenchymal stem cells (MSCs). The concentration ranges selected for each drug and investigational agent were based upon clinically achievable concentrations if the clinical Cmax of the agent was known.
Compounds. The drugs and investigational agents: alrizomadlin (APG-115; NSC831270), pelcitoclax (APG-1252; NSC835773), dasminapant (APG-1387;NSC834197), TAK-243 (NSC785004), copanlisib (NSC809693), olaparib (NSC753686), talazoparib (NSC767125), cobimetinib (NSC 768068), eltanexor (KPT-8602, NSC 794443), abemaciclib (NSC 768073), sotorasib (NSC818433), adagrasib (NSC 831453), MRTX-1133 (NSC 836407), Iadademestat (ORY1001, NSC 806812), and RMC-4630 (NSC839698), were obtained from the NCI Developmental Therapeutics Program Chemical Repository. The FDA-approved anticancer drug set is available from the Developmental Therapeutics Program at https://dtp.cancer.gov/organization/dscb/obtaining/available plates.htm. […] The stock solutions were prepared in dimethyl sulfoxide (DMSO, Sigma-Aldrich, St. Louis, MO, cat. D2650) at 800-fold the tested concentration and stored at -70 degrees C prior to their use. All drugs and investigational agents were tested over a range starting from a high concentration at or near the clinical Cmax and decreasing in half-log increments. If the clinical Cmax for an agent had not been determined, the highest concentration tested was 10 microM.
The patient-derived cancer (PDC) cell lines include five colon adenocarcinomas: 186277-243-T-J2-PDC, 616215-338-R-J1-PDC, 439559-082-T-J2-PDC, 463943-066-T-J2-PDC, and 519858-162-T-J1-PDC; three pancreatic carcinomas: 323965-272-R-J2-PDC, 521955-158-R6-J3-PDC, and 521955-158-R2-J5-PDC; two uterine sarcomas: 327498-152-R-J2-PDC and 993429-296-R-J1-PDC; two rhabdomyosarcomas: 755483-174-R-J1-PDC and 772245-204-R-J1-PDC; two soft tissue sarcomas: 126254-015-R-J1-PDC and 494315-158-R-J1-PDC; two malignant fibrous histiocytomas: 317291-083-R-J1-PDC and 596521-263-R-J1-PDC; two breast carcinomas: 171881-019-R-J1-PDC and 885512-296-R-J2-PDC; and one ovarian carcinoma: 6556581-035-R-J-PDC were obtained from the NCI PDMR, (https://pdmr.cancer.gov). The established cell lines HSSY-2 synovial sarcoma (RRID:CVCL 8719), SYO-1 synovial sarcoma (RRID:CVCL_7146), MPNST malignant peripheral neural sheath tumor were obtained from the Sloan Kettering Institute. The following established cell lines were purchased from the American Type Culture Collection (ATCC, Manassas, VA), Sor the received from the NCI repository:, PANC-1 pancreatic carcinoma (CRL-1469, RRID:CVCL_0480), OVCAR-5 ovarian carcinoma (RRID:CVCL_1628), OVCAR-8 ovarian carcinoma (RRID:CVCL_1629), , MCF-7 breast carcinoma (CRL-12584, RRID:CVCL_0031), MDA-MB-231 breast carcinoma (CRL-12532, RRID:CVCL_0062), NCI-H1876 small cell lung carcinoma (CRL-5902, RRID:CVCL_1503), NCI-H510A small cell lung carcinoma (HTB-184, RRID:CVCL_1565), NCI-H1417 (CRL-5869, RRID:CVCL_1469), and NCI-H196 small cell lung carcinoma (CRL-5823, RRID:CVCL_1509). Dr. Peter Houghton (Greehey Children's Cancer Research Institute, University of Texas Health Science Center, San Antonio, TX) provided Rh-18 rhabdomyosarcoma (RRID:CVCL_1659). Pooled donor human umbilical vein endothelial cells (HUVEC, Lonza, cat. CC-2519) and human mesenchymal stem cells (hMSC, Lonza, cat. PT-2501) were purchased from Lonza (Walkersville, MD).
Cell Culture. […]

[1] = second compound 0.03 µM, first compound 0.00316 µM
[2] = second compound 0.03 µM, first compound 0.01 µM
[3] = second compound 0.03 µM, first compound 0.0316 µM
[4] = second compound 0.03 µM, first compound 0.1 µM
[5] = second compound 0.0949 µM, first compound 0.00316 µM
[6] = second compound 0.0949 µM, first compound 0.01 µM
[7] = second compound 0.0949 µM, first compound 0.0316 µM
[8] = second compound 0.0949 µM, first compound 0.1 µM
[9] = second compound 0.3 µM, first compound 0.00316 µM
[10] = second compound 0.3 µM, first compound 0.01 µM
[11] = second compound 0.3 µM, first compound 0.0316 µM
[12] = second compound 0.3 µM, first compound 0.1 µM
[13] = second compound 0.949 µM, first compound 0.00316 µM
[14] = second compound 0.949 µM, first compound 0.01 µM
[15] = second compound 0.949 µM, first compound 0.0316 µM
[16] = second compound 0.949 µM, first compound 0.1 µM
[17] = second compound 3 µM, first compound 0.00316 µM
[18] = second compound 3 µM, first compound 0.01 µM
[19] = second compound 3 µM, first compound 0.0316 µM
[20] = second compound 3 µM, first compound 0.1 µM
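Also: spheroids exposed to agents for 7 days starting day 3 after seeding.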
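For viability, T/C in this document: percent of DMSO vehicle control viability with 100% = vehicle.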

CCN1CCN(Cc2ccc(Nc3ncc(F)c(-c4cc(F)c5nc(C)n(C(C)C)c5c4)n3)nc2)CC1 + CCN1C(C(=O)NC23CCC(C(=O)O)(CC2)CC3)C(c2cccc(Cl)c2F)C2(C(=O)Nc3cc(Cl)ccc32)C12CCCCC2
IC50 (second compound 0.03 µM): > 1000 nM
IC50 (second compound 0.0949 µM): > 1000 nM
IC50 (second compound 0.3 µM): > 1000 nM
IC50 (second compound 0.949 µM): > 1000 nM
IC50 (second compound 3 µM): > 1000 nM
viability, T/C [1]: 107%
viability, T/C [2]: 105%
viability, T/C [3]: 94.4%
viability, T/C [4]: 88.9%
viability, T/C (second compound 0.03 µM, first compound 0.316 µM): 85.7%
viability, T/C (second compound 0.03 µM, first compound 1 µM): 83%
viability, T/C [5]: 104%
viability, T/C [6]: 107%
viability, T/C [7]: 98.8%
viability, T/C [8]: 80.7%
viability, T/C (second compound 0.0949 µM, first compound 0.316 µM): 94%
viability, T/C (second compound 0.0949 µM, first compound 1 µM): 84.8%
viability, T/C [9]: 99.1%
viability, T/C [10]: 106%
viability, T/C [11]: 115%
viability, T/C [12]: 87.2%
viability, T/C (second compound 0.3 µM, first compound 0.316 µM): 86.8%
viability, T/C (second compound 0.3 µM, first compound 1 µM): 85%
viability, T/C [13]: 99.2%
viability, T/C [14]: 102%
viability, T/C [15]: 114%
viability, T/C [16]: 93.5%
viability, T/C (second compound 0.949 µM, first compound 0.316 µM): 96.7%
viability, T/C (second compound 0.949 µM, first compound 1 µM): 90%
viability, T/C [17]: 87.5%
viability, T/C [18]: 94%
viability, T/C [19]: 105%
viability, T/C [20]: 80.7%
viability, T/C (second compound 3 µM, first compound 0.316 µM): 87%
viability, T/C (second compound 3 µM, first compound 1 µM): 84.7%

NC(=O)C(=Cn1cnc(-c2cc(C(F)(F)F)cc(C(F)(F)F)c2)n1)c1cncnc1 + CCN1C(C(=O)NC23CCC(C(=O)O)(CC2)CC3)C(c2cccc(Cl)c2F)C2(C(=O)Nc3cc(Cl)ccc32)C12CCCCC2
IC50 (second compound 0.03 µM): > 300 nM
IC50 (second compound 0.0949 µM): > 300 nM
IC50 (second compound 0.3 µM): > 300 nM
IC50 (second compound 0.949 µM): > 300 nM
IC50 (second compound 3 µM): > 300 nM
viability, T/C (second compound 0.03 µM, first compound 0.000949 µM): 96.7%
viability, T/C (second compound 0.03 µM, first compound 0.003 µM): 103%
viability, T/C (second compound 0.03 µM, first compound 0.00949 µM): 103%
viability, T/C (second compound 0.03 µM, first compound 0.03 µM): 90.9%
viability, T/C (second compound 0.03 µM, first compound 0.0949 µM): 95.2%
viability, T/C (second compound 0.03 µM, first compound 0.3 µM): 81.9%
viability, T/C (second compound 0.0949 µM, first compound 0.000949 µM): 98.5%
viability, T/C (second compound 0.0949 µM, first compound 0.003 µM): 113%
viability, T/C (second compound 0.0949 µM, first compound 0.00949 µM): 107%
viability, T/C (second compound 0.0949 µM, first compound 0.03 µM): 83.2%
viability, T/C (second compound 0.0949 µM, first compound 0.0949 µM): 89.4%
viability, T/C (second compound 0.0949 µM, first compound 0.3 µM): 83.3%
viability, T/C (second compound 0.3 µM, first compound 0.000949 µM): 106%
viability, T/C (second compound 0.3 µM, first compound 0.003 µM): 102%
viability, T/C (second compound 0.3 µM, first compound 0.00949 µM): 105%
viability, T/C (second compound 0.3 µM, first compound 0.03 µM): 88.2%
viability, T/C (second compound 0.3 µM, first compound 0.0949 µM): 93.2%
viability, T/C (second compound 0.3 µM, first compound 0.3 µM): 80.8%
viability, T/C (second compound 0.949 µM, first compound 0.000949 µM): 105%
viability, T/C (second compound 0.949 µM, first compound 0.003 µM): 104%
viability, T/C (second compound 0.949 µM, first compound 0.00949 µM): 110%
viability, T/C (second compound 0.949 µM, first compound 0.03 µM): 90.3%
viability, T/C (second compound 0.949 µM, first compound 0.0949 µM): 88.6%
viability, T/C (second compound 0.949 µM, first compound 0.3 µM): 86.8%
viability, T/C (second compound 3 µM, first compound 0.000949 µM): 87.3%
viability, T/C (second compound 3 µM, first compound 0.003 µM): 93.2%
viability, T/C (second compound 3 µM, first compound 0.00949 µM): 96.6%
viability, T/C (second compound 3 µM, first compound 0.03 µM): 87.5%
viability, T/C (second compound 3 µM, first compound 0.0949 µM): 75%
viability, T/C (second compound 3 µM, first compound 0.3 µM): 67.7%

NC1CCC(NC2CC2c2ccccc2)CC1 (stereo not given) + CCN1C(C(=O)NC23CCC(C(=O)O)(CC2)CC3)C(c2cccc(Cl)c2F)C2(C(=O)Nc3cc(Cl)ccc32)C12CCCCC2
IC50 (second compound 0.03 µM): > 100 nM
IC50 (second compound 0.0949 µM): > 100 nM
IC50 (second compound 0.3 µM): > 100 nM
IC50 (second compound 0.949 µM): > 100 nM
IC50 (second compound 3 µM): > 100 nM
viability, T/C (second compound 0.03 µM, first compound 0.000316 µM): 95.4%
viability, T/C (second compound 0.03 µM, first compound 0.001 µM): 107%
viability, T/C [1]: 119%
viability, T/C [2]: 95.5%
viability, T/C [3]: 102%
viability, T/C [4]: 99.7%
viability, T/C (second compound 0.0949 µM, first compound 0.000316 µM): 105%
viability, T/C (second compound 0.0949 µM, first compound 0.001 µM): 111%
viability, T/C [5]: 123%
viability, T/C [6]: 100%
viability, T/C [7]: 98.8%
viability, T/C [8]: 107%
viability, T/C (second compound 0.3 µM, first compound 0.000316 µM): 97.6%
viability, T/C (second compound 0.3 µM, first compound 0.001 µM): 111%
viability, T/C [9]: 110%
viability, T/C [10]: 98.4%
viability, T/C [11]: 110%
viability, T/C [12]: 111%
viability, T/C (second compound 0.949 µM, first compound 0.000316 µM): 111%
viability, T/C (second compound 0.949 µM, first compound 0.001 µM): 124%
viability, T/C [13]: 121%
viability, T/C [14]: 100%
viability, T/C [15]: 107%
viability, T/C [16]: 114%
viability, T/C (second compound 3 µM, first compound 0.000316 µM): 96.8%
viability, T/C (second compound 3 µM, first compound 0.001 µM): 98.5%
viability, T/C [17]: 103%
viability, T/C [18]: 98.6%
viability, T/C [19]: 94.1%
viability, T/C [20]: 107%
